Measured values as given in patent US10258642B2, “Dextran sulfate for use in mobilization of cells” (TX MEDIC AB, priority 2013, dated 2019).
Marks after values point to notes of the source that are not given here.

Legend:
peripheral blood cells = experiment: s.c. dose finding study, hematological analysis of peripheral blood
stem cells = conditions: mice (Broxmeyer 2005); cited from earlier work
[1] = clinical trials (CHMP Assessment Report); cited from earlier work
HGF = experiment: s.c. dose finding study, HGF-ELISA; conditions: one hour after administration of AMD3100
[2] = AMD3100 5 mg/kg s.c., 1 hour, mean ± SEM

With c1cc(CN2CCCNCCNCCCNCC2)ccc1CN1CCCNCCNCCCNCC1 [AMD3100, 1,1′-[1,4-phenylenebis (methylene)]-bis-1,4,8,11-tetraazacyclotetradecane, reference compound] the Basophils (peripheral blood cells; [2]) was 0.03 ± 0.0 10^9 cells/L, the Eosinophils (peripheral blood cells; [2]) was 0.3 ± 0.0* 10^9 cells/L and the LUC (peripheral blood cells; [2]) was 0.05 ± 0.0* 10^9 cells/L. The “Leukocytes (WBC)” value (peripheral blood cells; [2]) was 7.8 ± 0.6* 10^9 cells/L, the Lymphocytes (peripheral blood cells; [2]) was 5.3 ± 0.4 10^9 cells/L and the MPV (peripheral blood cells; [2]) was 8.0 ± 0.1. For the same compound, the Monocytes (peripheral blood cells; [2]) was 0.3 ± 0.0 10^9 cells/L, the Neutrophils (peripheral blood cells; [2]) was 1.8 ± 0.2* 10^9 cells/L and the Erythrocytes (peripheral blood cells; mouse, in vivo, sc, 5 mg/kg) was 8.0 ± 0.0*** 10^12 cells/L. It also gave a Hemoglobin (peripheral blood cells; mouse, in vivo, sc, 5 mg/kg) of 112.5 ± 0.9, an MCHC (peripheral blood cells; mouse, in vivo, sc, 5 mg/kg) of 332.0 ± 2.0 g/L and an MCV (peripheral blood cells; mouse, in vivo, sc, 5 mg/kg) of 42.7 ± 0.6 fL. The Platelets (peripheral blood cells; mouse, in vivo, sc, 5 mg/kg) was 706.8 ± 30.7** 10^9 cells/L, the Reticulocytes (peripheral blood cells; mouse, in vivo, sc, 5 mg/kg) was 186.3 ± 23.7 10^9 cells/L and the “time of peak in mobilized stem cells after plerixafor administration” value (stem cells) was 1 h. The “HSCT patients who experienced infections after transplantation” value [1] was 20-25% and the HGF levels (HGF) was 650 ± 230 pg/mL.
